Measurements as given in patent US5334393A, “Sustained-release tablet based on isosorbide 5-mononitrate and process for preparing it” (Pierre Fabre Medicament, priority 1990, dated 1994).

Assays:
[1] = Particle size by air-jet sieve (ALPIN JET SIEVE); assay type: physicochemical; conditions: for particle size fraction 100 μm to 250 μm: desired profile 20 to 50%; for particle size fraction 80 μm to 100 μm: desired profile 40 to 60%; for particle size fraction larger than 500 μm: desired profile ≤ 0.5%; for particle size fraction 250 μm to 500 μm: desired profile ≤ 5%
Source text: The air-Jet sieve method used according to the invention to define the particle size of the 5-ISMN is a technique widely used by those skilled in the art on account of its great sensitivity and reliability, and is consequently very familiar to them. The operating conditions employed in the context of the invention will be clarified in greater detail below.
Characterization of the particle size of the 5-ISMN used according to the invention by the air-jet sieve, type ALPIN JET SIEVE, method
350 g (sic) partial air vacuum,
time 4 min from 80 to 100 μm, then 3 mm (sic) from 250 to 500 μm.
Under these conditions, three batches of 5-ISMN, A, B and C, were tested.

[2] = Kinetics of release in vitro (rotating paddle dissolution); assay type: physicochemical; conditions: composition according to the invention, 100 rpm/900 ml of water
Procedure: The study of the changes in the percentage of 5-ISMN dissolved was performed as a function of time. This test was carried out using a rotating paddle apparatus (100 rpm/900 ml of water).

[3] = Kinetics of release of the active principle in vitro as a function of pH; assay type: physicochemical; conditions: tablet according to the invention
Procedure: This study was carried out at pH values of 1.5, 4.25 and 7.2 and variable values.

[4] = In vivo absorption profile
[5] = Physical properties of 5-ISMN (static electricity, flowability, sublimation, solubility); assay type: physicochemical; conditions: well-defined particle size fraction of 5-ISMN powder
[6] = cited from earlier work
[7] = plasma; recorded value; cited from earlier work

O=[N+]([O-])O[C@@H]1CO[C@H]2[C@@H]1OC[C@@H]2O [C, isosorbide 5-mononitrate]
particle size fraction 100 μm to 250 μm [1]: 34.85% | particle size fraction 80 μm to 100 μm [1]: 49.2% | particle size fraction larger than 500 μm [1]: 0.0% | particle size fraction 250 μm to 500 μm [1]: 0.0%

O=[N+]([O-])O[C@@H]1CO[C@H]2[C@@H]1OC[C@@H]2O [A, isosorbide 5-mononitrate]
particle size fraction 100 μm to 250 μm [1]: 26% | particle size fraction 80 μm to 100 μm [1]: 47.5% | particle size fraction larger than 500 μm [1]: 0.0% | particle size fraction 250 μm to 500 μm [1]: 0.0%

O=[N+]([O-])O[C@@H]1CO[C@H]2[C@@H]1OC[C@@H]2O [5-ISMN, isosorbide 5-mononitrate]
% dissolved at 0.25 hour ([2]; 0.25 hour): 5% to 20% | % dissolved at 1 hour ([2]; 1 hour): 20% to 40% | % dissolved at 4 hours ([2]; 4 hours): 60% to 80% | % dissolved at 8 hours ([2]; 8 hours): ≥ 80% | kinetic profiles of release at constant pH ([3]; pH 1.5, 4.25 and 7.2): do not differ significantly from one another | dissolution profile obtained at variable pH ([3]; variable pH): pH-independent mode of release | constant mean flux of in vivo absorption ([4]; calculated from mean curve of percentages of 5-ISMN absorbed): ~13.37 % h^-1 | absorption profile ([4]; mean curve for the percentages of 5-ISMN absorbed): zero order entry up to approximately the fifth hour following administration | electrostatic phenomena [5]: low level of electrostatic phenomena | flowability and compressibility [5]: qualities of flowability and compressibility | tendency to sublime [5]: far less marked tendency to sublime | sublimation ([6]; 60° C., 75% relative humidity): sublimation phenomenon | flowability ([6]; static electricity phenomenon, dry mixing): virtually zero flowability | solubility in water and buffer solutions ([6]; water and buffer solutions): very high solubility | minimal effective concentration (Ceff) [7]: 100 ng/mL

O=[N+]([O-])O[C@@H]1CO[C@H]2[C@@H]1OC[C@@H]2O [B, isosorbide 5-mononitrate]
particle size fraction 100 μm to 250 μm [1]: 34.4% | particle size fraction 80 μm to 100 μm [1]: 48.2% | particle size fraction larger than 500 μm [1]: 0.0% | particle size fraction 250 μm to 500 μm [1]: 0.9%
